Laboratory results as given in US20160193148A1, “LIPOSOMAL FORMULATIONS FOR THE TREATMENT OF BACTERIAL INFECTIONS” (UNIVERSITY OF GEORGIA RESEARCH FOUNDATION, INC., priority 2013, published 2016).
Marks after values point to notes of the source that are not given here.

Experiment: PELF gentamicin concentrations after single IV or nebulized dose in foals
Protocol: Eight healthy 5-7-week-old Quarter Horse foals were randomly assigned to one of 4 groups using a balanced Latin-square design. Foals were considered healthy on the basis of physical examinations, complete blood cell counts and plasma biochemical profiles. […] The liposome gentamicin formulation was nebulized using Nortev FLEXINEB. For each treatment, gentamicin was administered over a period of 15 minutes. There was a washout period of 7-14 days between each treatment.
For the BAL collection, foals were sedated with xylazine and butorphanol. Concentrations of gentamicin were measured in plasma and in bronchoalveolar cells using HPLC-MS.
Eight foals received a single IV or nebulized dose (6.6 mg/kg bwt) of FG^h or LG in a balanced Latin square design. Beginning at 5-7 weeks of age, every foal received each of the 4 possible drug-route combinations with a 14-day washout period between each administration. Intravenous FG and LG were diluted in 250 ml of sterile 0.9% saline and administered via a jugular catheter as a constant rate infusion over 15 min. Nebulized FG and LG were administered by inhalation over 15 minutes via a commercial equine nebulizer. To ensure equivalent rate of delivery, FG was diluted to the same volume as LG with sterile 0.9% saline. Particle size of nebulized LG was verified using laser diffraction. Blood samples for plasma separation were obtained from a catheter placed in the contralateral jugular vein prior to each drug administration, and at 5, 10, 20, 30, 45 minutes and 1, 1.5, 2, 3, 4, 6, 8, 12, 16, 24 and 48 hours after the end of the 15 minute IV infusion or nebulization period. Bronchoalveolar lavage (BAL) fluid was collected at 2, 4, 8, 24, and 48 hours. Foals were sedated with xylazine hydrochloride (0.5 mg/kg bwt IV) and butorphanol tartrate (0.07 mg/kg bwt IV) prior to collection of BAL fluid. Prior to analysis for gentamicin concentration, blood samples were centrifuged at 400×g for 10 minutes and the resultant plasma frozen at −80° C. until assayed.
A 10 mm diameter, 2.4 m BAL catheter^k was passed via nasal approach until wedged into a bronchus. The lavage solution consisted of 4 aliquots of 60 ml 0.9% saline solution infused and instantly aspirated. Immediately upon collection, the total volume of BAL fluid recovered was measured and a 3 ml aliquot saved in an EDTA tube from which total nucleated cell count was determined by use of a cell counter.^1 BAL fluid was immediately centrifuged at 400×g for 10 min. The BAL cells in the resultant pellet were washed, re-suspended in 500 μl of acetonitrile: 0.2% formic acid (1:1, v/v), vortexed, and frozen at −80° C. until assayed. Supernatant BAL fluid was also frozen at −80° C. until assayed. Before assaying, the cell pellet samples were thawed, vortexed vigorously and sonicated for 10 minutes to ensure complete cell lysis. The resulting suspension was centrifuged at 500×g for 10 minutes and the supernatant fluid was used to determine the intracellular concentrations of gentamicin.
Briefly, gentamicin was extracted from plasma (250 μl) and urine (500 μl) using protein precipitation with an equal volume of ice-cold 90:10 acetonitrile: 0.2% formic acid (v/v). Extracted samples were centrifuged (2° C. at 10,000×g for 10 min) twice. Two-hundred microliters of the supernatants were transferred to polypropylene inserts for injection. The supernatant derived from the lyzed BAL cell pellet was transferred to polypropylene inserts for direct injection without further processing. […] An aliquot of the resultant supernatant was then mixed with an equal volume of ice-cold acetonitrile, centrifuged (2° C. at 10,000×g for 10 minutes) and 200 μl was transferred to polypropylene inserts for injection. Calibration standards were prepared in drug-free foal plasma, BAL fluid or urine and then extracted as described above so that standard curves specific to each biologic matrix could be constructed.

With gentamicin sulfate [Free Gentamicin] the AUC0-t (IV) was 44.66 ± 20.96^a μg · h/ml, the C24 h (IV) was 840 ± 640 ng/mL and the “Tmax (median and range)” value (IV) was 6 (4-8) h. The AUC0-24 (IV, Table 2) was 44800 ± 21000 ng·h/mL, the C48 h (IV, Table 2) was 840 ± 640 ng/mL and the Cmax (IV, Table 2) was 4.6 ± 1.9 µg/mL. The Cmax (IV, Table 5) was 4.64 ± 1.99^a μg/ml, the AUC0-24 (N (nebulized), Table 2) was 41000 ± 15800 ng·h/mL and the C48 h (N (nebulized), Table 2) was 350 ± 340 ng/mL. For the same substance, the Cmax (N (nebulized), Table 2) was 13.0 ± 6.7 µg/mL, the AUC0-t (Neb) was 40.97 ± 15.81^a μg · h/ml and the C24 h (Neb) was 350 ± 340 ng/mL. For the same substance, the “Tmax (median and range)” value (Neb) was 2 (2-2) h and the Cmax (Neb, Table 5) was 13.02 ± 6.70^c μg/ml.
